{"source": "patent US10722599B2", "about": "“Lipid assemblies and uses thereof and some pH and electrostatic modulating lipids to be used in said assemblies” (Yissum Research Development Company of the Hebrew …, priority 2015, dated 2020)", "key": {"[1]": {"assay": "PK study with formulated miRNA", "details": "71%-14%, from plasma levels at 30 minutes", "method": "(§1) Three animals were injected IV in each group with a dose of 1 mg/kg. Plasma was isolated at serial time points: pre-dosing (time 0), 10 minutes, 30 minutes, 1 hour, 2 hours 4 hours, 6 hours and 24 hours. RNA was extracted from the plasma according to Rosetta Genomics' protocol of miRNA isolation from fluids. qPCR was done for miR-34a, normalized to selected miRNAs: hsa-miR-16-5p, hsa-miR-103a-3p and hsa-miR-23a-3p."}, "[2]": {"details": "in vivo, iv, 1 mg/kg", "method": "as §1"}, "[3]": {"tested_on": "BALB/c mice", "assay": "In vivo toxicity, single IV escalating dose", "details": "as formulated siRNA, Ampholip1 up to 10 mg/kg, Ampholip2 up to 5 mg/kg, 24 hours and 7 days", "description": "Each group comprised six (6) males and six (6) females BALB/cOlaHsd mice, where half of each group (3 males and 3 females) were assigned to 24 hours or 7 days termination time points, respectively. Animals were subjected to clinical hematology and biochemistry assessment at 24 hours and 7 days post dosing, followed by gross macroscopic examination. The following parameters were evaluated for toxicity: mortality, clinical signs, body weight, weight gain, hematology and biochemistry tests."}, "[4]": {"tested_on": "orthotopic intraperitoneal tumors of SKOV-3 human ovarian adenocarcinoma cells", "assay": "In vivo SKOV model: miR-34a accumulation in tumor (Ampholip 1)", "details": "IP, 7 mg/kg miRNA, days 20, 22, 25, tumors 24 h after last dose, 'miR-34a-SL' = DOPC/Ampholip1/miR-34a-SL (2M), folate formulation = DOPC/Ampholip1/Folate/miR-34a (1M)", "method": "(§2) In vivo bio-distribution and activity of miR-34a or siRNA formulated with DOPC/Ampholip was evaluated in female nude mice bearing orthotopic intraperitoneal tumors of SKOV-3 human ovarian adenocarcinoma cells.\n(§3) This experiment intended to assess the bio-distribution and activity of amphoteric liposomes/miR34a and amphoteric liposomes/miR-34a-SL. To this end, experimental model female nude mice bearing the orthotopic tumors received three series of repeated intraperitoneal (IP) injections (at days 20, 22 and 25) with amphoteric liposomes/miRNA in concentration of 7 mg/kg of miRNA. Twenty-four hours after the last dose the tumors were removed, and RNA extracted."}, "[5]": {"tested_on": "orthotopic intraperitoneal tumors of SKOV-3 human ovarian adenocarcinoma cells", "details": "mouse, in vivo, ip, 7 mg/kg", "method": "as §2, §3"}}, "note": "Read-outs that look alike come from different tables or passages of the source."}
{"molecule": "miR-34a: hsa-miR-34a naked (non-conjugated) duplex, SEQ ID NO 1 and 2 (chain 1 UGGCAGUGUCUUAGCUGGUUGU; chain 2 ACAAUCAGCAAGUAUACUGCCC; further chemistry not given here; listed as Homo sapiens)", "values": [{"measurement": "estimate of encapsulation", "setting": "[1]", "result": 57, "unit": "%"}, {"measurement": "plasma stability / bioavailability of miR-34a, in words", "setting": "[2]", "result": "rapidly degraded"}]}
{"molecule": "CCCCCCCCCCCCC/C=C/[C@@H](O)[C@H](COC(=O)NCCCNCCCCNCCCNC(=O)CCC(=O)O)NC(=O)CCCCCCCCCCCCCCC", "note": "[Ampholip 2, Carboxy-N-palmitoyl-D-erythro-sphingosyl-1-carbamoyl spermine]", "values": [{"measurement": "gross pathological findings", "setting": "[3]", "result": "no gross pathological findings"}, {"measurement": "mortality, clinical signs, body weight, weight gain, hematology and biochemistry vs saline-treated groups", "setting": "[3]", "result": "No significant statistical difference"}]}
{"molecule": "miR-34a-SL: hsa-miR-34a conjugated to sphingolipid, SEQ ID NO 1 and 3 (chain 1 UGGCAGUGUCUUAGCUGGUUGU; chain 2 CAAUCAGCAAGUAUACUGCCCU; sphingolipid conjugate, position not given here; listed as Homo sapiens)", "values": [{"measurement": "fold enrichment of miR-34a in tumor relative to the negative controls", "setting": "[4]", "result": 604, "unit": "fold"}, {"measurement": "fold enrichment of miR-34a in tumor relative to the negative controls", "setting": "[5]", "result": "two"}, {"measurement": "share in circulation at 30 minutes relative to 10 minutes", "setting": "[2]", "result": 14, "unit": "%"}]}
